Test [1] concerns the target Sphingosine 1-phosphate receptor 1 (Homo sapiens, UniProt P21453). Description: S1P1 Binding Assay: Membranes were prepared from CHO cells expressing human S1P1. Cells pellets (1×10^9 cells/pellet) were suspended in buffer containing 20 mM HEPES (4-(2-hydroxyethyl)-1-piperazineethanesulfonic acid), pH 7.5, 50 mM NaCl, 2 mM EDTA (Ethylenediamine tetraacetic acid) and Protease Inhibitor cocktail (Roche), and disrupted on ice using the Polytron homogenizer. The homogenate was centrifuged at 20,000 rpm (48,000 g) and the supernatant was discarded. The membrane pellets were resuspended in buffer containing 50 mM HEPES, pH 7.5, 100 mM NaCl, 1 mM MgCl2, 2 mM EDTA and stored in aliquots at −80° C. after protein concentration determination.Membranes (2 μg/well) and 0.03 nM final concentration of 33P-S1P ligand (1 mCi/ml, Perkin Elmer or American Radiolabeled Chemicals) diluted in assay buffer (50 mM HEPES, pH7.4, 5 mM MgCl2, 1 mM CaCl2, 0.5% fatty acid free BSA(bovine serum albumin), 1 mM NaF) were added to the compound plates (384 Falcon v-bottom plate (0.5 μl/well in a 11 point, 3-fold dilution). Binding was performed for 45 minutes at room temperature, terminated by collecting the membranes onto 384-well Millipore FB filter plates, and radioactivity was measured by TOPCOUNT®. The competition data of the test compounds over a range of concentrations was plotted as percentage inhibition of radioligand specific binding. […].

The target of test [2] is Sphingosine 1-phosphate receptor 3 (Homo sapiens, UniProt Q99500). Briefly: Receptor [35S] GTPgammaS Binding Assays: Compounds were loaded in a 384 Falcon v-bottom plate (0.5 μL/well in a 11 point, 3-fold dilution). Membranes prepared from S1P1/CHO cells or EDG3-Gal5-bla HEK293T cells (EDG3 equivalent S1P3) were added to the compound plate (40 μL/well, final protein 3 μg/well) with MULTIDROP®. [35S]GTP (1250 Ci/mmol, Perkin Elmer) was diluted in assay buffer: 20 mM HEPES, pH7.5, 10 mM MgCl2, 150 mM NaCl, 1 mM EGTA(ethylene glycol tetraacetic acid), 1 mM DTT (dithiothreitol), 10 μM GDP, 0.1% fatty acid free BSA, and 10 μg/ml Saponin to 0.4 nM. 40 μL of the [35S] GTP solution was added to the compound plate with a final concentration of 0.2 nM. The reaction was kept at room temperature for 45 min. At the end of incubation, all the mixtures in the compound plate were transferred to Millipore 384-well FB filter plates via the VELOCITY11® Vprep liquid handler. The filter plate was washed with water 4 times by using the manifold Embla plate washer and dried at 60° C. for 45 min. MicroScint 20 scintillation fluid (30 μL) was added to each well for counting on the Packard TOPCOUNT®. EC50 is defined as the agonist concentration that corresponds to 50% of the Ymax (maximal response) obtained for each individual compound tested.A smaller value for GTPγS S1P1 EC50 value indicated greater activity for the compound in the GTPγS S1P1 binding assay. […].
Chain of Sphingosine 1-phosphate receptor 3 (Q99500 whole entry): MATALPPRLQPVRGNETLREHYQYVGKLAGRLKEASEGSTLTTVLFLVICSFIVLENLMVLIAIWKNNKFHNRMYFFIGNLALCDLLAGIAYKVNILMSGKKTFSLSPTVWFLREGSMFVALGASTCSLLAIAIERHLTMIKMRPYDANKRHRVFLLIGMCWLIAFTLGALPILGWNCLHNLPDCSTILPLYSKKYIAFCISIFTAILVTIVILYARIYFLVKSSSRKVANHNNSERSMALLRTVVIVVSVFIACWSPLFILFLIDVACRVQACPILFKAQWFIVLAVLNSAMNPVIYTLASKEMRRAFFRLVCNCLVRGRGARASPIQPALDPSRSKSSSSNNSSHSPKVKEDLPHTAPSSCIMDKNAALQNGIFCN

Chain of Sphingosine 1-phosphate receptor 1 (P21453 whole entry): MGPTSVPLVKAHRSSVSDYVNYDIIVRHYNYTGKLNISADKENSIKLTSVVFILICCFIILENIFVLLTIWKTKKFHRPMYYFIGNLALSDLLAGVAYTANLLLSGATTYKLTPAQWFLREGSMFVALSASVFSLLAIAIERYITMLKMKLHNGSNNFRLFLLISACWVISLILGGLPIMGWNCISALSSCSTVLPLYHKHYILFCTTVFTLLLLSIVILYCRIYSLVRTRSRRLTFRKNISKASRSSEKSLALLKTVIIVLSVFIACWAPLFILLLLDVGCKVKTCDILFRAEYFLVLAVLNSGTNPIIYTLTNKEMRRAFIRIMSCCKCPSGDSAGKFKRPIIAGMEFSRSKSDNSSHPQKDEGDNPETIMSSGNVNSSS

In general, EC50 refers to the concentration needed to bring the measured effect to its halfway point. With `CCCCCCCCc1cc(C)c(N2CCC(N)(COP(=O)(O)O)C2=O)c(C)c1` (configuration not stated), the values for the concentration for a half-maximal effect (EC50) in test [1] and in test [2] were 14.4 µM and more than 60 µM, respectively.
